Reference: patent US12662473B2, “Inhibitors for programmed cell necrosis and preparation method therefor and use thereof” (SHANGHAI INSTITUTE OF ORGANIC CHEMISTRY, CHINESE ACADEMY OF …, priority 2019, dated 2026)

Test system: RIPK1 (S161A)
Experiment: Effect of RIPK1 S161A mutation on compound activity (293T overexpression; S161A MEFs cell death with TNFα and 5z7)
Assay type: cell-based, murine
Conditions: FIG. 5
Text: The biological test protocol used in this experiment was to test the effect of mutation of serine at position 161 of RIPK1 to alanine on the activity of compound QY-1-98. The experiment was verified by two aspects. On the one hand, after RIPK1 was overexpressed in 293T cells, RIPK1 would be activated by autophosphorylation, and the activity of small molecules to inhibit the phosphorylation of RIPK1 was detected at this time. On the other hand, in murine-derived MEFs cells with RIPK1 knockout, and RIPK1 (S161A) put back, RIPK1-dependent cell apoptosis can be induced by using TNFα and 5z7 (TAK1 inhibitor), and the effect of the compound to inhibit cell death was detected at this time.
1. 293T cells overexpressing RIPK1 experiment: RIPK1 plasmid with N-terminal 3×FLAG was constructed on PcDNA vector. 293T cells were digested, and then diluted to 8×10^5/ml. 1 ml of cells were added to each well of a 12-well cell culture plate, and the plate was placed in a cell culture incubator (37° C., 5% CO2) for 12 hours before transfection. […] After cooling, the samples were detected by western-blot after electrophoresis on SDS-PAGE gel (9%). […] The plate was placed in cell incubator (37° C., 5% CO2) for 14 h, 15 μl of Cell Titer-Glo solution was added to each well, the mixture was incubated at room temperature for 30 min, and the luminescence value was detected to measure the level of intracellular ATP. […]

**Q.** For `Cc1noc([C@@H]2CCCN2C(=O)C(C)(C)Oc2ccc(Cl)cc2)n1` [QY-1-98], which “inhibition of programmed cell necrosis after mutation of serine 161 of RIPK1 to alanine” value is on record?
**A.** can still inhibit the programmed cells necrosis
